# Data taken from PMC10318822, “Phase 1 dose-escalation study to evaluate the safety, tolerability, pharmacokinetics, and anti-tumor activity of FCN-159 in adults with neurofibromatosis type 1-related unresectable plexiform neurofibromas” (BMC Medicine, 2023).
# System: adult patients with NF1-related PN
# Assay: Phase I dose-escalation: DLT, MTD, RP2D and drug-related TEAEs (CTCAE v5.0)
# Method: This is a multicenter, open-label, single-arm, non-randomized, phase I dose-escalation trial to evaluate the safety, tolerability, pharmacokinetic (PK), and anti-tumor activity of orally administered FCN-159 in adult patients with NF1 (NCT04954001). Phase I commenced with dose escalation in adult patients following a standard 3 + 3 design (Supplementary Table S1) to determine the maximum tolerated dose (MTD) of FCN-159 administered daily under fasting conditions (defined as no food or drink 1 h before and 2 h after each dose) in 28-day cycles. Study drug was dispensed at the study site and patient adherence was monitored by the records of drug dispensation and return. Patients were on treatment until PD, death, patient's voluntary withdrawal from study treatment, or study termination. The study was followed for 2 years after the last patient in. The starting dose was 4 mg, escalating in cohorts of at least three evaluable patients at 6 mg, 8 mg, and 12 mg until the MTD was determined. The starting dose in this study was determined based on available data from a phase 1a, first-in-human study of FCN-159 in patients with advanced NRAS ^mut+ melanoma at the time of study design. […] Dose expansion at a likely RP2D level enrolled approximately six patients. The highest dose level with a dose-limiting toxicity (DLT) incidence rate ≤ 33% (0/3 or 1/6 patients) was to be considered the MTD. If patients experienced grade ≥ 3 and/or unacceptable toxic events that were considered as at least possibly related to the study treatment, the study treatment was discontinued and supportive treatment was given in accordance with local treatment routines. If the toxicity returned to grade ≤ 2 within 28 days after the occurrence, and there was no progression on patients’ conditions or the investigator believed that patients could benefit from the study treatment, the original dose could be maintained or reduced after discussion with medical monitor. After completion of the dose escalation part of the study, PK, efficacy, safety, and tolerability data were analyzed to select the RP2D.
# Primary endpoints of the study were the DLT incidence rate, MTD, and RP2D. Secondary endpoints included other safety assessments, imaging tumor response (complete response [CR], PR, stable disease [SD], or progressive disease [PD]), and PK parameters of FCN-159. Adverse events were graded per CTCAE v5.0.
# All patients underwent a complete medical history, physical examination, Eastern Cooperative Oncology Group (ECOG) assessment, and laboratory analysis of test results. Drug-related TEAEs, serious adverse events (SAEs), TEAEs of grade ≥ 3 toxicity, and TEAEs leading to drug discontinuation were reviewed on an ongoing basis. Efficacy was assessed by radiologic scans and clinical assessment. Tumor assessments per Response Evaluation in Neurofibromatosis Schwannomatosis criteria were performed by investigators using MRI volumetric analysis every 4 cycles within the first 2 years (± 7 days) and every 6 cycles after 2 years (± 14 days) until PD, death, patient's voluntary withdrawal from study treatment, or study termination. MRI sequences of […], T1- and T2-weighted sequences were chosen and the software of Extended Brilliance Workspace, SIGNA Premier and uExceed were used for MRI volumetric analysis. The same software was used for all tumor assessments at baseline and subsequent assessed timepoints of the same patient. Pain was assessed by an 11-point numerical rating scale (NRS-11).
# The sample size for the dose-escalation study was estimated to be 24 based on the 3 + 3 method. Safety was analyzed in patients who received at least one dose of FCN-159 and had at least one safety assessment. DLT was assessed in the DLT analysis set, defined as patients who were enrolled in the dose-escalation study and met the DLT evaluation criteria.
structure (smiles),measurement,setting,value
Cn1c(=O)c(F)c(Nc2ccc(I)cc2F)c2c(=O)n(C3CC3)nc(-c3cccc(NS(=O)(=O)C4CC4)c3)c21 [FCN-159],Drug-related TEAE: Decreased appetite,6 mg (N = 4),0 n (%)
same,Drug-related TEAE: Dermatitis acneiform,6 mg (N = 4),0 n (%)
same,Drug-related TEAE: Diarrhea,6 mg (N = 4),0 n (%)
same,Drug-related TEAE: Drug eruption,6 mg (N = 4),2 (50.0) n (%)
same,Drug-related TEAE: Dyslipidemia,6 mg (N = 4),0 n (%)
same,Drug-related TEAE: Ejection fraction decreased,6 mg (N = 4),0 n (%)
same,Drug-related TEAE: Electrocardiogram QT prolonged,6 mg (N = 4),0 n (%)
same,Drug-related TEAE: Electrocardiogram abnormal,6 mg (N = 4),0 n (%)
same,Drug-related TEAE: Epistaxis,6 mg (N = 4),0 n (%)
same,Drug-related TEAE: Folliculitis,6 mg (N = 4),1 (25.0) n (%)
same,Drug-related TEAE: Functional gastrointestinal disorder,6 mg (N = 4),0 n (%)
same,Drug-related TEAE: Gamma-glutamyltransferase increased,6 mg (N = 4),1 (25.0) n (%)
same,Drug-related TEAE: Gingival pain,6 mg (N = 4),0 n (%)
same,Drug-related TEAE: Hyperlipidemia,6 mg (N = 4),0 n (%)
same,Drug-related TEAE: Hypertension,6 mg (N = 4),0 n (%)
same,Drug-related TEAE: Hypoalbuminemia,6 mg (N = 4),0 n (%)
same,Drug-related TEAE: Hypocalcemia,6 mg (N = 4),1 (25.0) n (%)
same,Drug-related TEAE: Hypophosphatemia,6 mg (N = 4),0 n (%)
same,Drug-related TEAE: Hypoproteinemia,6 mg (N = 4),0 n (%)
same,Drug-related TEAE: Immunoglobulins increased,6 mg (N = 4),1 (25.0) n (%)
same,Drug-related TEAE: Impetigo,6 mg (N = 4),0 n (%)
same,Drug-related TEAE: Left atrial enlargement,6 mg (N = 4),0 n (%)
same,Drug-related TEAE: Lipoprotein abnormal,6 mg (N = 4),0 n (%)
same,Drug-related TEAE: Malaise,6 mg (N = 4),0 n (%)
same,Drug-related TEAE: Menstrual disorder,6 mg (N = 4),0 n (%)
same,Drug-related TEAE: Mitral valve incompetence,6 mg (N = 4),1 (25.0) n (%)
same,Drug-related TEAE: Mouth ulceration,6 mg (N = 4),0 n (%)
same,Drug-related TEAE: Muscular weakness,6 mg (N = 4),0 n (%)
same,Drug-related TEAE: Oedema peripheral,6 mg (N = 4),1 (25.0) n (%)
same,Drug-related TEAE: Pain in extremity,6 mg (N = 4),0 n (%)
same,Drug-related TEAE: Paronychia,6 mg (N = 4),2 (50.0) n (%)
same,Drug-related TEAE: Prealbumin decreased,6 mg (N = 4),0 n (%)
same,Drug-related TEAE: Protein urine present,6 mg (N = 4),2 (50.0) n (%)
same,Drug-related TEAE: Pruritus,6 mg (N = 4),0 n (%)
same,Drug-related TEAE: QRS axis abnormal,6 mg (N = 4),0 n (%)
same,Drug-related TEAE: Rash,6 mg (N = 4),1 (25.0) n (%)
same,Drug-related TEAE: Sinus arrhythmia,6 mg (N = 4),0 n (%)
same,Drug-related TEAE: Sinus bradycardia,6 mg (N = 4),0 n (%)
same,Drug-related TEAE: Sinusitis,6 mg (N = 4),0 n (%)
same,Drug-related TEAE: Skin exfoliation,6 mg (N = 4),0 n (%)
same,Drug-related TEAE: Specific gravity urine increased,6 mg (N = 4),2 (50.0) n (%)
same,Drug-related TEAE: Stomatitis,6 mg (N = 4),2 (50.0) n (%)
same,Drug-related TEAE: Supraventricular extrasystoles,6 mg (N = 4),0 n (%)
same,Drug-related TEAE: Total bile acids increased,6 mg (N = 4),2 (50.0) n (%)
same,Drug-related TEAE: Tricuspid valve incompetence,6 mg (N = 4),1 (25.0) n (%)
same,Drug-related TEAE: Urinary occult blood positive,6 mg (N = 4),1 (25.0) n (%)
same,Drug-related TEAE: Urinary sediment present,6 mg (N = 4),0 n (%)
same,Drug-related TEAE: Urinary tract infection,6 mg (N = 4),1 (25.0) n (%)
same,Drug-related TEAE: Urine ketone body present,6 mg (N = 4),0 n (%)
same,Drug-related TEAE: Urobilinogen urine increased,6 mg (N = 4),2 (50.0) n (%)
same,Drug-related TEAE: Urticaria,6 mg (N = 4),0 n (%)
same,Drug-related TEAE: Vision blurred,6 mg (N = 4),0 n (%)
same,Drug-related TEAE: Visual acuity reduced,6 mg (N = 4),1 (25.0) n (%)
same,Drug-related TEAE: pH urine decreased,6 mg (N = 4),1 (25.0) n (%)
same,Drug-related TEAE: pH urine increased,6 mg (N = 4),0 n (%)
same,Subjects with any drug-related TEAE,6 mg (N = 4),4 (100) n (%)
same,Drug-related TEAE: Abdominal pain,8 mg (N = 8),1 (12.5) n (%)
same,Drug-related TEAE: Acne,8 mg (N = 8),0 n (%)
same,Drug-related TEAE: Acne pustular,8 mg (N = 8),1 (12.5) n (%)
same,Drug-related TEAE: Alanine aminotransferase increased,8 mg (N = 8),1 (12.5) n (%)
same,Drug-related TEAE: Albumin globulin ratio decreased,8 mg (N = 8),1 (12.5) n (%)
same,Drug-related TEAE: Alopecia,8 mg (N = 8),1 (12.5) n (%)
same,Drug-related TEAE: Amylase increased,8 mg (N = 8),0 n (%)
same,Drug-related TEAE: Anemia,8 mg (N = 8),1 (12.5) n (%)
same,Drug-related TEAE: Aortic dilatation,8 mg (N = 8),1 (12.5) n (%)
same,Drug-related TEAE: Aspartate aminotransferase increased,8 mg (N = 8),0 n (%)
same,Drug-related TEAE: Asthenia,8 mg (N = 8),0 n (%)
same,Drug-related TEAE: Beta globulin decreased,8 mg (N = 8),0 n (%)
same,Drug-related TEAE: Beta globulin increased,8 mg (N = 8),0 n (%)
same,Drug-related TEAE: Blood alkaline phosphatase increased,8 mg (N = 8),3 (37.5) n (%)
same,Drug-related TEAE: Blood bilirubin increased,8 mg (N = 8),2 (25.0) n (%)
same,Drug-related TEAE: Blood creatine phosphokinase increased,8 mg (N = 8),2 (25.0) n (%)
same,Drug-related TEAE: Blood fibrinogen increased,8 mg (N = 8),0 n (%)
same,Drug-related TEAE: Blood lactate dehydrogenase increased,8 mg (N = 8),1 (12.5) n (%)
same,Drug-related TEAE: Blood pressure increased,8 mg (N = 8),0 n (%)
same,Drug-related TEAE: Blood urea increased,8 mg (N = 8),1 (12.5) n (%)
same,Drug-related TEAE: Blood uric acid increased,8 mg (N = 8),0 n (%)
same,Drug-related TEAE: Breath odor,8 mg (N = 8),1 (12.5) n (%)
same,Drug-related TEAE: Capillary disorder,8 mg (N = 8),0 n (%)
same,Drug-related TEAE: Constipation,8 mg (N = 8),1 (12.5) n (%)
same,Drug-related TEAE: Decreased appetite,8 mg (N = 8),1 (12.5) n (%)
same,Drug-related TEAE: Dermatitis acneiform,8 mg (N = 8),1 (12.5) n (%)
same,Drug-related TEAE: Diarrhea,8 mg (N = 8),1 (12.5) n (%)
same,Drug-related TEAE: Drug eruption,8 mg (N = 8),2 (25.0) n (%)
same,Drug-related TEAE: Dyslipidemia,8 mg (N = 8),1 (12.5) n (%)
same,Drug-related TEAE: Ejection fraction decreased,8 mg (N = 8),1 (12.5) n (%)
same,Drug-related TEAE: Electrocardiogram QT prolonged,8 mg (N = 8),1 (12.5) n (%)
same,Drug-related TEAE: Electrocardiogram abnormal,8 mg (N = 8),0 n (%)
same,Drug-related TEAE: Epistaxis,8 mg (N = 8),1 (12.5) n (%)
same,Drug-related TEAE: Folliculitis,8 mg (N = 8),4 (50.0) n (%)
same,Drug-related TEAE: Functional gastrointestinal disorder,8 mg (N = 8),1 (12.5) n (%)
same,Drug-related TEAE: Gamma-glutamyltransferase increased,8 mg (N = 8),0 n (%)
same,Drug-related TEAE: Gingival pain,8 mg (N = 8),1 (12.5) n (%)
same,Drug-related TEAE: Hyperlipidemia,8 mg (N = 8),0 n (%)
same,Drug-related TEAE: Hypertension,8 mg (N = 8),1 (12.5) n (%)
same,Drug-related TEAE: Hypoalbuminemia,8 mg (N = 8),1 (12.5) n (%)
same,Drug-related TEAE: Hypocalcemia,8 mg (N = 8),1 (12.5) n (%)
same,Drug-related TEAE: Hypophosphatemia,8 mg (N = 8),1 (12.5) n (%)
same,Drug-related TEAE: Hypoproteinemia,8 mg (N = 8),1 (12.5) n (%)
same,Drug-related TEAE: Immunoglobulins increased,8 mg (N = 8),1 (12.5) n (%)
same,Drug-related TEAE: Impetigo,8 mg (N = 8),0 n (%)
same,Drug-related TEAE: Left atrial enlargement,8 mg (N = 8),1 (12.5) n (%)
same,Drug-related TEAE: Lipoprotein abnormal,8 mg (N = 8),0 n (%)
same,Drug-related TEAE: Malaise,8 mg (N = 8),0 n (%)
same,Drug-related TEAE: Menstrual disorder,8 mg (N = 8),0 n (%)
same,Drug-related TEAE: Mitral valve incompetence,8 mg (N = 8),2 (25.0) n (%)
